One assay concerns the target T1, Anf3 (Azotobacter vinelandii, UniProt C1DK98).
T1 construct: gene Avin_49040; full-length anf3, N-terminal His6 tag cut off with thrombin; E. coli KRX; intertwined homodimer; cofactors contact both monomers
In words: X-ray crystal structure of the complex. The class given is binding. To be noted: protein isolated with bound FAD; FAD stacks on heme; crystals at 16 °C, 25.5% PEG 4000, 170 mM ammonium sulfate.

Assay [1] deals with Anf3 from Azotobacter vinelandii (Azotobacter vinelandii). The experiment in a line: crystal structure; hanging-drop vapor diffusion, 25.5% PEG 4000, 170 mM ammonium sulfate, 16 °C; space group P2(1); the asymmetric unit contains a dimer.

T1 sequence (C1DK98 entry or part of it): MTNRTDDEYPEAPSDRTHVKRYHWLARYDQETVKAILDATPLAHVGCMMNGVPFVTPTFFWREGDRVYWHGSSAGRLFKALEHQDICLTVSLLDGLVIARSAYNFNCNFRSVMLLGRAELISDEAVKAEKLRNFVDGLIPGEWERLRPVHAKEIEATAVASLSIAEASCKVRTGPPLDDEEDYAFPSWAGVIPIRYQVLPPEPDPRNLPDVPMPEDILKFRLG

With `Cc1cc2nc3c(=O)[nH]c(=O)nc-3n(C[C@H](O)[C@H](O)[C@H](O)COP(=O)(O)OP(=O)(O)OC[C@H]3O[C@@H](n4cnc5c(N)ncnc54)[C@H](O)[C@@H]3O)c2cc1C` [FAD], the “X-ray crystal structure of the complex” value at Anf3 is reported as “Each monomer core is a split-barrel flavin-binding domain that binds an FAD”.
Regarding “Anf3 from Azotobacter vinelandii (enzyme)”, the stoichiometry N (in general, the number of molecules, sites or subunits per partner or assembly) in assay [1] turned out to be 2.

The record behind these values is paper PMC6579470, “A low-potential terminal oxidase associated with the iron-only nitrogenase from the nitrogen-fixing bacterium Azotobacter vinelandii” (The Journal of Biological Chemistry, 2019).
